Like-named read-outs stand apart in the source and are kept apart here. One block for each compound: values may come before it.
Biological target: T1, aldose reductase enzyme (Homo sapiens, UniProt P15121)
T1 construct: partially purified aldose reductase enzyme obtained from human placenta; from tissue; host or cells: human placenta
Test: in vitro inhibition of aldose reductase enzyme activity (procedure of U.S. Pat. No. 3,821,383, based on Hayman et al.)
Assay type: biochemical
Description: The substrate employed is partially purified aldose reductase enzyme obtained from human placenta.

IC50 (read-out: IC50, inhibition concentration calculated to show 50% inhibition of enzyme activity, partially purified aldose reductase from human placenta): ~0.86 µM
Structure (SMILES): C[C@@H]1C[C@@](O)(CC(=O)O)c2cc(Cl)ccc2O1 (relative stereo) [Example 15, 6-Chloro-c-4-hydroxy-r-2-methylchroman-4-acetic Acid]

IC50: ~0.051 µM
Structure (SMILES): C[C@@H]1C[C@@](O)(CC(=O)O)c2cc([N+](=O)[O-])c(Cl)cc2O1 (relative stereo) [Example 82, 7-Chloro-6-nitro-c-4-hydroxy-r-2-methylchroman-4-acetic acid]

inhibition at 10 µM (at 10^-5 M, partially purified aldose reductase from human placenta, read-out: percent inhibition of enzyme activity): 37%
Structure (SMILES): C[C@@H]1C[C@@](O)(CC(=O)O)c2cc(Cl)c(Cl)cc2S1(=O)=O (relative stereo) [Example 113, 6,7-Dichloro-c-4-hydroxy-r-2-methyl-3,4-dihydro-2H-1-thianaphthalene-4-acetic Acid 1,1-Dioxide]

— US4853410A, “Hydroxyacetic acid derivatives for the treatment of diabetic complications” (Pfizer Inc., priority 1987, dated 1989)
